What was measured:
Test in all cases: Wood preservation test ES 84/113, pine sapwood, weight loss of wood samples
Format in all cases: cell-based
[1] = system: Coniophora puteana (cellar fungus); conditions: substance alone
Protocol: (§1) Determination of the Activity of the Cyproconazole in Combination with Dimethyldidecylammonium Chloride Against Wood-destroying Basidiomycetes
(§2) The active substances were tested in accordance with European Testing Standards ES 84 (1979) and 113 (1986). Treatment with the active substances prevents the wood from being destroyed. The effect of the treatment is quantified indirectly via the non-existing weight loss of the wood samples.
(§3) The wood sample used was pine sapwood, and the test fungi used were Coniophora puteana (cellar fungus), Poria plazenta, Gloeophyllum trabeum and Trametes (Coriolus) versicolor. Markedly smaller amounts of the combination according to the invention of cyproconazole (A: 2-(4-chlorophenyl)-3-cyclopropyl-3-methyl-1-(1H,1,2,4-triazol-1-yl)-butan-2-ol) and dimethyldidecylammonium chloride (B1) have the same result (0% weight loss) as cyproconazole or B1 alone. Comparably good results were also obtained when beech was used as the wood sample.

Gloeophyllum trabeum = conditions: Gloephyllum, substance alone
Protocol: as §1, §2, §3

Poria plazenta = conditions: substance alone
Protocol: as §1, §2, §3

[2] = system: Trametes (Coriolus) versicolor; conditions: substance alone
Protocol: as §1, §2, §3

SMILES	Amount (g/m^3) of active Substance at 0% Weight Loss [1]	Amount (g/m^3) of active Substance at 0% Weight Loss (Gloeophyllum trabeum)	Amount (g/m^3) of active Substance at 0% Weight Loss (Poria plazenta)	Amount (g/m^3) of active Substance at 0% Weight Loss [2]
CC(C1CC1)C(O)(Cn1cncn1)c1ccc(Cl)cc1 (centres unmarked) [A]	247 g g/m^3	247 g g/m^3	243 g g/m^3	418 g g/m^3
CCCCCCCCCC[N+](C)(C)CCCCCCCCCC.[Cl-] [B1, dimethyldidecylammonium chloride]	12,415 g g/m^3	12,505 g g/m^3	3,175 g g/m^3	2,675 g g/m^3

Source: patent publication US6423732B1, “Synergistic combinations of cyproconazole” (Syngenta Participations AG, priority 1992, dated 2002)
